Measured values published in article PMC4648982 (Chemistry Central Journal, 2015).
Structures can show the parent of a compound that is named as a salt.

Biological target: jack bean urease (Canavalia ensiformis, UniProt P07374)
Assay: biochemical
Details: for urease inhibitory activity in words: in vitro assay, authors' verbal grading
Protocol: Reaction mixture comprising of 25μL of enzyme (jack bean urease) (1 unit/well) solution and 55 μL of phosphate buffers (4 mM) containing 100 mM urea were incubated with 5 μL of test compounds dissolved in methanol (0.5 mM concentration) at 30 °C for 15 min in 96-well plates. Urease activity was determined by measuring ammonia production using the indophenol method as described by Weather burn. Briefly, 45 μl each phenol reagent (1 % w/v phenol and 0.005 % w/v sodium nitroprussside) and 70 μL of alkali reagent(0.5 % w/v NaOH and 0.1 % active chloride NaOCl) were added to each well. The increasing absorbance at 630 nm was measured afther 50 min, using a microplate reader (Molecular Device, USA). All reactions were performed in triplicate in a final volume of 200 μL. The results (change in absorbance per min) were processed by using softMax Pro software (molecular Device, USA). The entire assays were performed at pH 6.8. Percentage inhibitions were calculated from the formula 100 − (ODtestwell/ODcontrol) × 100. Thiourea was used as the standard inhibitor of urease.

Chain of jack bean urease (P07374 whole entry, looked up): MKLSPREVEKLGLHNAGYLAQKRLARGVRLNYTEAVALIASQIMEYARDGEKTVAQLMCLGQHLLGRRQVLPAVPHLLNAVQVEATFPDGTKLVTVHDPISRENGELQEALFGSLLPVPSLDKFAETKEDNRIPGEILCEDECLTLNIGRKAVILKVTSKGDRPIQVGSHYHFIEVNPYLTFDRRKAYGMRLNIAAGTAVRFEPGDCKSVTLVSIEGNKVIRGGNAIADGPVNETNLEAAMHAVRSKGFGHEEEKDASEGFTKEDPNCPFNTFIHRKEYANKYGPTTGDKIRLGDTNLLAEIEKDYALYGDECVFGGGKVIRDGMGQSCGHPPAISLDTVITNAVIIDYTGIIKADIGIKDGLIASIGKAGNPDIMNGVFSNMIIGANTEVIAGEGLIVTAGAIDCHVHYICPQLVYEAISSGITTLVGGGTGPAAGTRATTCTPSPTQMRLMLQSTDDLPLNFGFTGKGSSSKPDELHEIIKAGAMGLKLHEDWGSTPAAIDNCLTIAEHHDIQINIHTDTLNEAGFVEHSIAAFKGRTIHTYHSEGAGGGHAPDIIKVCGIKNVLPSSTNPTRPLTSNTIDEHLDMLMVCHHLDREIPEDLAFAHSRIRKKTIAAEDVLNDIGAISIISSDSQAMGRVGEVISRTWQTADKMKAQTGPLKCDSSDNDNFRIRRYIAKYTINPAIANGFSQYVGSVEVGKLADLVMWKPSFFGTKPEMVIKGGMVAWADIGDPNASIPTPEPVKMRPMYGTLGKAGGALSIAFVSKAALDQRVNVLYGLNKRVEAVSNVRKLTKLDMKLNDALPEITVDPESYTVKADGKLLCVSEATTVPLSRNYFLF

SMILES	IC50 [µM]	urease inhibitory activity in words
COc1ccc(C(C2=C(O)CC(C)(C)CC2=O)c2c(O)n(C)c(=O)n(C)c2=O)cc1 (stereo not drawn) [Compound 4o, 5-((2-Hydroxy-4,4-dimethyl-6-oxocyclohex-1-en-1-yl)(4-methoxyphenyl)methyl)-1,3-dimethyl-2,6-dioxo-1,2,3,6-tetrahydropyrimidin-4-olate diethylaminium salt]	83 ± 0.66	–
COc1ccc(C(c2c(O)[nH]c(=O)[nH]c2=O)c2c(O)[nH]c(=O)[nH]c2=O)cc1 [Compound 4k, 5,5′-((4-Methoxyphenyl)methylene)bis(6-hydroxypyrimidine-2,4(1H,3H)-dione) diethylaminium salt]	25.8 ± 0.23	–
CC1(C)CC(=O)C(C(C2=C(O)CC(C)(C)CC2=O)c2ccc(Cl)cc2)=C(O)C1 [Compound 5b, 2-((4-Chlorophenyl)(2-hydroxy-4,4-dimethyl-6-oxocyclohex-1-en-1-yl)methyl)-5,5-dimethyl-3-oxocyclohex-1-enolate diethylaminium salt]	29.7 ± 0.67	–
CC1(C)CC(=O)C(C(C2=C(O)CC(C)(C)CC2=O)c2ccc(O)cc2)=C(O)C1 [Compound 5k, 2-((2-Hydroxy-4,4-dimethyl-6-oxocyclohex-1-en-1-yl)(4-hydroxyphenyl)methyl)-5,5-dimethyl-3-oxocyclohex-1-enolate diethylaminium salt]	43.8 ± 0.33	good urease inhibitory activity
Cn1c(O)c(C(C2=C(O)CC(C)(C)CC2=O)c2ccc(Cl)cc2Cl)c(=O)n(C)c1=O (stereo not drawn) [Compound 4w, 5-((2,4-Dichlorophenyl)(2-hydroxy-4,4-dimethyl-6-oxocyclohex-1-en-1-yl)methyl)-1,3-dimethyl-2,6-dioxo-1,2,3,6-tetrahydropyrimidin-4-olate diethylaminium salt]	59.4 ± 0.98	–
O=c1[nH]c(O)c(C(c2ccc3ccccc3c2)c2c(O)[nH]c(=O)[nH]c2=O)c(=O)[nH]1 [Compound 4l, 5,5′-(Naphthalen-2-ylmethylene)bis(6-hydroxypyrimidine-2,4(1H,3H)-dione) diethylaminium salt]	22.7 ± 0.2	–
COc1ccc(C(C2=C(O)CC(C)(C)CC2=O)C2=C(O)CC(C)(C)CC2=O)cc1 [Compound 5e, 2-((2-Hydroxy-4,4-dimethyl-6-oxocyclohex-1-en-1-yl)(4-methoxyphenyl)methyl)-5,5-dimethyl-3-oxocyclohex-1-enolate diethylaminium salt]	39.8 ± 0.75	–
CC1(C)CC(=O)C(C(c2ccc3ccccc3c2)c2c(O)[nH]c(=O)[nH]c2=O)=C(O)C1 (stereo not drawn) [Compound 5r, 5-((2-Hydroxy-4,4-dimethyl-6-oxocyclohex-1-en-1-yl)(naphthalen-2-yl)methyl)-2,6-dioxo-1,2,3,6-tetrahydropyrimidin-4-olate diethylaminium salt]	82.8 ± 0.72	–
Cn1c(O)c(C(c2cccc(Br)c2)c2c(O)n(C)c(=O)n(C)c2=O)c(=O)n(C)c1=O [Compound 4e, 5,5′-((3-Bromophenyl)methylene)bis(1,3-dimethylpyrimidine-2,4,6(1H,3H,5H)-trione) diethylaminium salt]	27.5 ± 0.12	–
Cn1c(O)c(C(C2=C(O)CC(C)(C)CC2=O)c2ccc(O)cc2)c(=O)n(C)c1=O (stereo not drawn) [Compound 4v, 5-((2-Hydroxy-4,4-dimethyl-6-oxocyclohex-1-en-1-yl)(4-hydroxyphenyl)methyl)-1,3-dimethyl-2,6-dioxo-1,2,3,6-tetrahydropyrimidin-4-olate diethylaminium salt]	52.2 ± 1.26	–
CC1(C)CC(=O)C(C(c2ccc(Br)cc2)c2c(O)[nH]c(=O)[nH]c2=O)=C(O)C1 (stereo not drawn) [Compound 5o, 5-((4-Bromophenyl)(2-hydroxy-4,4-dimethyl-6-oxocyclohex-1-en-1-yl)methyl)-2,6-dioxo-1,2,3,6-tetrahydropyrimidin-4-olate diethylaminium salt]	34.6 ± 0.79	–
Cc1cccc(C(c2c(O)n(C)c(=O)n(C)c2=O)c2c(O)n(C)c(=O)n(C)c2=O)c1 [Compound 4b, 5,5′-(3-Tolylmethylene)bis(1,3-dimethylpyrimidine-2,4,6(1H,3H,5H)-trione) diethylaminium salt]	34.4 ± 1.57	–
Cn1c(O)c(C(C2=C(O)CC(C)(C)CC2=O)c2ccc3ccccc3c2)c(=O)n(C)c1=O (stereo not drawn) [Compound 4z, 5-((2-Hydroxy-4,4-dimethyl-6-oxocyclohex-1-en-1-yl)(naphthalen-2-yl)methyl)-1,3-dimethyl-2,6-dioxo-1,2,3,6-tetrahydropyrimidin-4-olate diethylaminium salt]	39.8 ± 1.38	–
Cc1ccc(C(c2c(O)[nH]c(=O)[nH]c2=O)c2c(O)[nH]c(=O)[nH]c2=O)cc1 [Compound 4i, 5,5′-(p-Tolylmethylene)bis(6-hydroxypyrimidine-2,4(1H,3H)-dione) diethylaminium salt]	17.6 ± 0.23	most active
Cn1c(O)c(C(C2=C(O)CC(C)(C)CC2=O)c2ccc(Br)cc2)c(=O)n(C)c1=O (stereo not drawn) [Compound 4q, 5-((4-Bromophenyl)(2-hydroxy-4,4-dimethyl-6-oxocyclohex-1-en-1-yl)methyl)-1,3-dimethyl-2,6-dioxo-1,2,3,6-tetrahydropyrimidin-4-olate diethylaminium salt]	24.6 ± 0.42	–
Cn1c(O)c(C(C2=C(O)CC(C)(C)CC2=O)c2cccc(Br)c2)c(=O)n(C)c1=O (stereo not drawn) [Compound 4r, 5-((3-Bromophenyl)(2-hydroxy-4,4-dimethyl-6-oxocyclohex-1-en-1-yl)methyl)-1,3-dimethyl-2,6-dioxo-1,2,3,6-tetrahydropyrimidin-4-olate diethylaminium salt]	27.5 ± 0.19	–
CC1(C)CC(=O)C(C(c2ccc(C=O)cc2)c2c(O)[nH]c(=O)[nH]c2=O)=C(O)C1 (stereo not drawn) [Compound 5q, 2-((4-Formylphenyl)(6-hydroxy-2,4-dioxo-1,2,3,4-tetrahydropyrimidin-5-yl)methyl)-5,5-dimethyl-3-oxocyclohex-1-enolate diethylaminium salt]	41.6 ± 0.41	–
CC1(C)CC(=O)C(C(C2=C(O)CC(C)(C)CC2=O)c2cccc([N+](=O)[O-])c2)=C(O)C1 [Compound 5h, 2-((2-Hydroxy-4,4-dimethyl-6-oxocyclohex-1-en-1-yl)(3-nitrophenyl)methyl)-5,5-dimethyl-3-oxocyclohex-1-enolate diethylaminium salt]	49 ± 0.55	good urease inhibitory activity
Cn1c(O)c(C(C2=C(O)CC(C)(C)CC2=O)c2c(Cl)cccc2Cl)c(=O)n(C)c1=O (stereo not drawn) [Compound 4y, 5-((2,6-Dichlorophenyl)(2-hydroxy-4,4-dimethyl-6-oxocyclohex-1-en-1-yl)methyl)-1,3-dimethyl-2,6-dioxo-1,2,3,6-tetrahydropyrimidin-4-olate diethylaminium salt]	83.4 ± 1	–
Cc1ccc(C(C2=C(O)CC(C)(C)CC2=O)c2c(O)[nH]c(=O)[nH]c2=O)cc1 (stereo not drawn) [Compound 5p, 5-((2-Hydroxy-4,4-dimethyl-6-oxocyclohex-1-en-1-yl)(p-tolyl)methyl)-2,6-dioxo-1,2,3,6-tetrahydropyrimidin-4-olate diethylaminium salt]	27.4 ± 0.54	–
CC1(C)CC(=O)C(C(C2=C(O)CC(C)(C)CC2=O)c2ccccc2[N+](=O)[O-])=C(O)C1 [Compound 5i, 2-((2-Hydroxy-4,4-dimethyl-6-oxocyclohex-1-en-1-yl)(2-nitrophenyl)methyl)-5,5-dimethyl-3-oxocyclohex-1-enolate diethylaminium salt]	210.1 ± 0.29	inactivity
Cc1ccc(C(C2=C(O)CC(C)(C)CC2=O)c2c(O)n(C)c(=O)n(C)c2=O)cc1 (stereo not drawn) [Compound 4n, 5-((2-Hydroxy-4,4-dimethyl-6-oxocyclohex-1-en-1-yl)(p-tolyl)methyl)-1,3-dimethyl-2,6-dioxo-1,2,3,6-tetrahydropyrimidin-4-olate diethylaminium salt]	41.2 ± 0.58	–
Cn1c(O)c(C(c2ccc([N+](=O)[O-])cc2)c2c(O)n(C)c(=O)n(C)c2=O)c(=O)n(C)c1=O [Compound 4c, 5,5′-((4-Nitrophenyl)methylene)bis(1,3-dimethylpyrimidine-2,4,6(1H,3H,5H)-trione)diethylaminium salt]	54.2 ± 0.47	–
CC1(C)CC(=O)C(C(C2=C(O)CC(C)(C)CC2=O)c2ccc(C=O)cc2)=C(O)C1 [Compound 5j, 2-((4-Formylphenyl)(2-hydroxy-4,4-dimethyl-6-oxocyclohex-1-en-1-yl)methyl)-5,5-dimethyl-3-oxocyclohex-1-enolate diethylaminium salt]	72.6 ± 0.59	–
Cn1c(O)c(C(C2=C(O)CC(C)(C)CC2=O)c2ccc(Cl)cc2)c(=O)n(C)c1=O (stereo not drawn) [Compound 4p, 5-((4-Chlorophenyl)(2-hydroxy-4,4-dimethyl-6-oxocyclohex-1-en-1-yl)methyl)-1,3-dimethyl-2,6-dioxo-1,2,3,6-tetrahydropyrimidin-4-olate diethylaminium salt]	39.7 ± 0.7	–
Cn1c(O)c(C(c2ccc(C=O)cc2)c2c(O)[nH]c(=O)[nH]c2=O)c(=O)n(C)c1=O (stereo not drawn) [Compound 5l, 4-((6-Hydroxy-1,3-dimethyl-2,4-dioxo-1,2,3,4-tetrahydropyrimidin-5-yl)(6-hydroxy-2,4-dioxo-1,2,3,4-tetrahydropyrimidin-5-yl)methyl)benzaldehyde diethylaminium salt]	17.2 ± 0.44	most active
CC1(C)CC(=O)C(C(c2ccccc2)c2c(O)[nH]c(=O)[nH]c2=O)=C(O)C1 (stereo not drawn) [Compound 5n, 5-((2-Hydroxy-4,4-dimethyl-6-oxocyclohex-1-en-1-yl)(phenyl)methyl)-2,6-dioxo-1,2,3,6-tetrahydropyrimidin-4-olate diethylaminium salt]	23.7 ± 0.57	active
